Type in all cases: in vivo
In test [1] the test system is WBC count and eosinophil percentage in BALF of asthma model mouse. Nature of the test: Effect on WBC count and eosinophil percentage in BALF of asthma model mouse. To be noted: OVA-induced asthma mouse, ig 7 d, dose/kg: dexamethasone 2 mg, Test group 1 50, 2 25, picrinine 5.0, vallesamine 3.0, scholaricine 3.0, 19-epi-scholaricine 3.5 mg, x ± SD. As to the method: Animal source: 25˜30 g male ICR mouse, from laboratory animal department of Kunming Medical University, License No. SCXK (Dian) 2011-0004.
Method and route: ovalbumin (OVA) was used to induce mouse asthma model, and after intragastrical administration for 7 d at a dose of 20 mL/kg, the animal was sacrificed at the eighth day.
Test group 1: picrinine, vallesamine, scholaricine and 19-epischolaricine prepared in Example 1.7 were homogeneously mixed at different ratios by weight (50 mg/kg), Test group 2: the alkaloid composition prepared in Example 1.4 (25 mg/kg). […]
(§1) Sample preparation: all the samples were prepared by using 0.5% carboxymethylcellulose sodium (0.5% CMC-Na).
Group and dose: in Test group 1, the ratio of picrinine, vallesamine, scholaricine and 19-epischolaricine by weight was 41:45:28:7, and the other groups and doses thereof were as described in Example 11.
Test index: number of white blood cells (WBCs) and number of eosinophil in bronchoalveolar lavage fluid (BALF) were used as index, and were determined by full-automatic hemocytometer.

The test system of test [2] is Col-1 in homogenate of pulmonary fibrosis model mouse. Nature of the test: Effect on Col-1 in homogenate of pulmonary fibrosis model mouse. To be noted: ELISA, bleomycin pulmonary fibrosis mouse, ig 28 d, dose/kg: prednisone acetate 5 mg, Test group 1 50, 2 25, 3 12.5, picrinine 5.0, vallesamine 3.0, scholaricine 3.5, 19-epi-scholaricine 1.0 mg, x ± SD. The procedure: (§2) Animal source: 30˜35 g male ICR mouse, from laboratory animal department of Kunming Medical University, License No. SCXK (Dian) 2011-0004.
(§3) Method and route: bleomycin was used to induce mouse pulmonary fibrosis, and after intragastrical administration for 28 d at a dose of 20 mL/kg, the animal was sacrificed at the 29th day.
(§4) Group and dose: Sham group, Model group, Positive control group, prednisone acetate (5 mg/kg) group, Test group 1: picrinine, vallesamine, scholaricine and 19-epischolaricine prepared in Example 1.7 were mixed at different ratios by weight (50 mg/kg), Test group 2: the alkaloid composition (25 mg/kg) prepared in Example 1.5, Test group 3: the alkaloid composition (12.5 mg/kg) prepared in Example 1.6, Picrinine group (5.0 mg/kg), Vallesamine group (3.0 mg/kg), Scholaricine group (3.5 mg/kg), and 19-epischolaricine group (1.0 mg/kg).
(§5) Positive control drug: prednisone acetate tablet, Approval number: H33021207, 5 mg/tablet, produced by Zhejiang Xianju Pharmaceutical Co., Ltd., Batch No. 140146.
as §1
Group and dose: in Test group 1, the ratio of picrinine, vallesamine, scholaricine and 19-epischolaricine by weight was 20:17:17:4, and the other groups and doses thereof were as described in Example 12.
Test index: Col-1 in homogenate was used as index, and was determined by enzyme linked immunosorbent assay.
For orientation: ELISA stands for enzyme-linked immunosorbent assay.

For test [3], the system named is KL-6 in serum of pulmonary fibrosis model mouse. Nature of the test: Effect on KL-6 in serum of pulmonary fibrosis model mouse. To be noted: ELISA, bleomycin pulmonary fibrosis mouse, ig 28 d, dose/kg: prednisone acetate 5 mg, Test group 1 50, 2 25, 3 12.5, picrinine 5.0, vallesamine 3.0, scholaricine 3.5, 19-epi-scholaricine 1.0 mg, x ± SD. As to the method:
as §2, §3, §4, §5, §1
Group and dose: in Test group 1, the ratio of picrinine, vallesamine, scholaricine and 19-epischolaricine by weight was 45:38:30:8, and the other groups and doses thereof were as described in Example 12.
Test index: KL-6 in serum was used as index, and was determined by enzyme linked immunosorbent assay.

Test [4] relates to MDA in serum and homogenate of pulmonary fibrosis model mouse. Nature of the test: Effect on MDA in serum and homogenate of pulmonary fibrosis model mouse. To be noted: bleomycin pulmonary fibrosis mouse, ig 28 d, dose/kg: prednisone acetate 5 mg, Test group 1 50, 2 25, 3 12.5, picrinine 5.0, vallesamine 3.0, scholaricine 3.5, 19-epi-scholaricine 1.0 mg, x ± SD. The procedure: as §2, §3, §4, §5, §1
Group and dose: in Test group 1, the ratio of picrinine, vallesamine, scholaricine and 19-epischolaricine by weight was 8:5:5:1, and the other groups and doses thereof were as described in Example 12.
Test index: MDA in serum and homogenate was used as index, and was determined by thiobabituric acid method.

For test [5], the system named is SOD in serum and homogenate of pulmonary fibrosis model mouse. The test is described as follows: Effect on SOD in serum and homogenate of pulmonary fibrosis model mouse. To be noted: bleomycin pulmonary fibrosis mouse, ig 28 d, dose/kg: prednisone acetate 5 mg, Test group 1 50, 2 25, 3 12.5, picrinine 5.0, vallesamine 3.0, scholaricine 3.5, 19-epi-scholaricine 1.0 mg, x ± SD. As to the method: as §2, §3, §4, §5, §1
Group and dose: in Test group 1, the ratio of picrinine, vallesamine, scholaricine and 19-epischolaricine by weight was 10:7:7:2, and the other groups and doses thereof were as described in Example 12.
Test index: SOD in serum and homogenate was used as index, and was determined by xanthine oxidase method.

In the case of `C/C=C1/CN2CC[C@@H]1[C@@](CO)(C(=O)OC)c1[nH]c3ccccc3c1C2` [vallesamine], in test [1], the Eosinophil percentage is given as 6.48 ± 2.84% and the “Number of WBCs” value is listed as 0.73 ± 0.35 ×10^9/L. Moreover, the Col-1 in test [2] turned out to be 6.3 ± 2.7 μg/g prot.

The molecule `COC(=O)C1=C2Nc3c(O)cccc3[C@@]23CCN2C[C@@H]([C@H](C)O)[C@@H]1C[C@H]23` [19-epi-scholaricine, 19-epischolaricine] registered a KL-6 in test [3] of 4.10 ± 0.97 U/mg prot. Besides, the Col-1 in test [2] is 6.5 ± 2.2 μg/g prot. Further, in test [4] (homogenate), the “MDA Homogenate” value amounted to 22.0 ± 7.4 nmol/mg prot. The “MDA Serum” value in test [4] (serum) was 0.66 ± 0.18 nmol/mg prot.

As to `C/C=C1/CN2[C@@H]3C[C@@]45c6ccccc6N[C@]4(O3)[C@@H]2C[C@@H]1[C@H]5C(=O)OC` [picrinine], in test [1], the Eosinophil percentage turned out to be 6.18 ± 3.61% and the “Number of WBCs” value is recorded as 0.91 ± 0.50 ×10^9/L. For the same molecule, the KL-6 in test [3] was 3.91 ± 0.60 U/mg prot. For the same molecule, the “SOD homogenate” value in test [5] (homogenate) is 53.2 ± 8.9 U/mg prot. In test [5] (serum), the “SOD Serum” value was determined as 17.2 ± 5.1 U/mg prot.

For the origin of these results see patent publication US10603345B2, “Pharmaceutical composition for treating respiratory disease” (Kunming Institute of Botany, The Chinese Academy of Sciences, priority 2015, dated 2020).
